Results reported in patent US5070207A, “Phospholipase A2 inhibitors” (American Home Products Corporation, priority 1990, dated 1991).
pIC50: −log10 of the molar value. Read-outs that look alike come from different tables or passages of the source.

Tests used:
Human Platelet PLA2 = biological target: T1, Human Platelet PLA2 (Homo sapiens, UniProt P14555); experiment: in vitro isolated phospholipase A2 assay, human platelet PLA2; assay type: biochemical; conditions: for inhibition at 10 µM: read-out: % Inhibition at 10 μM HP
T1 construct: a) Semipurified human platelet acid extract PLA2 (in 10 mM sodium; from tissue; host or cells: human platelets (acid extract, semipurified)
T1 sequence (P14555 21-144): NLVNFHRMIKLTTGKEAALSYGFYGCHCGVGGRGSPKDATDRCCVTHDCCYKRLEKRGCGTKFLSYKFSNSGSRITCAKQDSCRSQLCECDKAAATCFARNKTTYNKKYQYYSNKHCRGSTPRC
Procedure: (§1) The compounds of the invention are tested in an in vitro isolated phospholipase A2 assay to determine the ability of the test compounds to inhibit the release of arachidonic acid from an arachidonic acid-containing substrate by the action of phospholipase A2 enzyme from human and non-human sources.
(§2) Into a 15 mL polypropylene tube are added the following:
(§3) ^6 Two human PLA2 enzymes are used:
a) Semipurified human platelet acid extract PLA2 (in 10 mM sodium
acetate buffer, pH 4.5). Remove protein precipitate by centrifugation at
about 2200 rpm for 10 minutes.
(§4) Incubate the 100 μL reaction mixture for 10 minutes at 37° C. in a shaking water bath. The reaction is terminated by the addition of 2 mL tetrahydrofuran, followed by vortexing. NH2 columns (100 μg/mL-Analytichem International) are conditioned with 0.5 mL tetrahydrofuran followed by 0.5 mL tetrahydrofuran/water (2 mL:0.1 mL, v/v).
(§5) The sample is loaded onto the columns and slowly drawn through them. The hydrolyzed arachidonic acid retained in the columns is eluted therefrom with 1 mL tetrahydrofuran/glacial acetic acid (2%). The arachidonic acid is transferred to scintillation vials and quantitated by β-counting analysis. A "total counts" sample is prepared by pipetting 25 μL ^3 H-arachidonate E. coli directly into a scintillation vial to which is added 1 mL tetrahydrofuran. 10 mL aquasol (scintillation cocktail) is added to all samples.

Human Synovial PLA2 = biological target: T2, Human Synovial PLA2 (Homo sapiens, UniProt P14555); experiment: in vitro isolated phospholipase A2 assay, human synovial fluid PLA2; assay type: biochemical; conditions: for inhibition at 10 µM: read-out: % Inhibition at 10 μM HSF
T2 construct: b) Purified human synovial fluid; from tissue; host or cells: human synovial fluid (purified)
T2 sequence (P14555 21-144): T1 sequence (P14555 21-144)
Procedure: as §1, §2, §3
b) Purified human synovial fluid.
as §4, §5

[1] = system: LTC4 (lipoxygenase pathway); experiment: in vivo murine zymosan peritonitis assay, LTC4; design: species or system mouse (male CD-1); conditions: for ED50: Mus musculus, po, standard drugs
Procedure: (§6) The compounds of the invention are evaluated for their ability to inhibit the lipoxygenase and/or cyclooxygenase pathways of arachidonic acid metabolism in the in vivo murine zymosan peritonitis assay.
(§7) Male CD-1 mice (8 weeks old) are placed in plastic boxes in groups of six. Animals are injected with 1 mL i.p. of either 1% zymosan in pyrogen free 0.9% saline or saline (unstimulated control). Compounds are dosed orally 1 hour prior to zymosan injection. Twenty minutes after zymosan injection, the mice are asphyxiated by CO2 inhalation and the peritoneal cavity is lavaged with 2 mL ice cold Hanks Balanced Salt Solution (HBSS) without CaCl2, MgSO4 . 7H2 O and MgCl2 . 6H2 O. Peritoneal lavage fluid from each mouse is removed by syringe and placed in 5 mL plastic test tubes put on ice and volume is noted. Preparation of samples for evaluation by ELISA is as follows: Samples are centrifuged at 800 xg for 15 minutes; 1 mL of the supernatant is added to 8 mL ice cold methanol and kept at -70° C. overnight to precipitate protein; and samples are then centrifuged at 800 xg for 15 minutes, followed by a drying procedure in a Savant speed vac concentrator. The samples are reconstituted with 1 mL ice cold ELISA buffer and stored at -70° C. until assayed. The assay for eicosanoids (LTC4 and 6-keto-PGF1α) is performed according to conventional ELISA procedures.
(§8) Compounds to be tested orally are suspended in 0.5% Tween 80. Compounds to be tested intraperitoneally are suspended in 0.5% methylcellulose in 0.9% saline.
(§9) The total metabolite level in lavage fluid/mouse is calculated and the significance is determined by a one-way analysis of variance with LSD comparisons to control (p≤0.05). Drug effects are expressed as a percent change from control values.

[2] = system: 6-keto-PGF1α /TxB2 (cyclooxygenase pathway); experiment: in vivo murine zymosan peritonitis assay, 6-keto-PGF1α /TxB2; design: species or system mouse (male CD-1); conditions: for ED50: Mus musculus, po, read-out: ED50 6-keto-PGF1α /TxB2
Procedure: as §6, §7, §8, §9

[3] = system: LTB4 synthesis by rat glycogen-elicited polymorphonuclear leukocytes (PMN); experiment: inhibition of LTB4 synthesis by rat glycogen-elicited polymorphonuclear leukocytes; assay type: cell-based; conditions: Leukocyte
Procedure: Roy. Soc. Med., 74, 831 (1981)]. […] Accordingly, the specificity of action of PLA2 inhibitors can be determined by the activity of test compounds in this assay, which measures the ability of compounds to inhibit the synthesis of LTB4 by rat glycogen-elicited polymorphonuclear leukocytes (PMN) in the presence of exogenous substrate. […] The exudate is centrifuged at 400 xg for 10 minutes. The supernatant fluid is discarded and the cell pellet is resuspended to a concentration of 2.0×10^7 cells/mL in HBSS containing Ca^++ and Mg^++ and 10 μM L-cysteine. […] The reaction is terminated by centrifugation and pelleting cells. Supernatants are then analyzed by HPLC analysis on a 15 cm×4.6 mm ID supelcosil LC-18 (Supelco)(3M) column, using a two solvent system at a flow rate of 1.4 mL total flow as follows: Solvent A: 70:30 17.4 mM H3 PO4 :CH3 CN Solvent B. CH3 CN Gradient: (system is equilibrated with Solvent A) Percent solvent changes are accomplished in a linear fashion. […] 10^4 -2.0×10^4 dpm of eicosanoids of interest are injected in 90 μL EtOH cocktail. […] Results are expressed as percent inhibition at a given compound dose or as an IC50 value.

[4] = system: T×B2 synthesis by rat glycogen-elicited polymorphonuclear leukocytes (PMN); experiment: inhibition of synthesis of the cyclooxygenase product TxB2 by rat polymorphonuclear leukocytes; assay type: cell-based; conditions: Leukocyte
Procedure: The exudate is centrifuged at 400 xg for 10 minutes. The supernatant fluid is discarded and the cell pellet is resuspended to a concentration of 2.0×10^7 cells/mL in HBSS containing Ca^++ and Mg^++ and 10 μM L-cysteine. […] The reaction is terminated by centrifugation and pelleting cells. Supernatants are then analyzed by HPLC analysis on a 15 cm×4.6 mm ID supelcosil LC-18 (Supelco)(3M) column, using a two solvent system at a flow rate of 1.4 mL total flow as follows: […] In this assay, the procedure of Example 14 is carried out as described. […] The results are calculated as in Example 14 and presented below: […]

[5] = human synovial fluid, read-out: IC50 HSF

Question: With `CCCCC/C=C\C/C=C\C/C=C\C/C=C\CCCC(=O)O` [Arachidonic Acid, reference compound] as the compound, how does the pIC50 (Human Platelet PLA2) read?
Answer: 5.07

Question: What about the pIC50 (Human Synovial PLA2) of the same compound?
Answer: 5.49

Question: For `NC1=NN(c2cccc(C(F)(F)F)c2)CC1` [BW755C], which ED50 [1] is on record?
Answer: < 10 mg/kg

Question: Which inhibition at 50 µM (Human Platelet PLA2; at 50 μM, human platelet, read-out: % Inhibition HP) does the source give for `O=C(C#CCCCOc1ccc(Cl)cc1)C(F)(F)F` [Example 1, 7-(4-Chlorophenoxy)-1,1,1-trifluoro-3-heptyn-2-one] here?
Answer: 54%

Question: And the “% Inhibition 6-keto-PGF” value ([2]; 100 mg/kg p.o.)?
Answer: 15%

Question: What about the “% Inhibition LTC4” value ([1]; 100 mg/kg p.o.) of the same compound?
Answer: 32%

Question: And the inhibition at 10 µM [3]?
Answer: 89.8%

Question: And the inhibition at 10 µM [4]?
Answer: 24%

Question: And the pIC50 (Human Synovial PLA2; [5])?
Answer: 6.31

Question: For `O=C(C#CCCCn1c2ccccc2c2ccccc21)C(F)(F)F` [Example 2, 7-(9H-Carbazol-9-yl)-1,1,1-trifluoro-3-heptyn-2-one], which inhibition at 10 µM (Human Platelet PLA2; human platelet) is on record?
Answer: 7.2%

Question: And the pIC50 (Human Synovial PLA2; [5])?
Answer: 7.37

Question: With `O=C(C#CCCCOc1ccc(F)cc1)C(F)(F)F` [Example 3, 1,1,1-Trifluoro-7-(4-fluorophenoxy)-3-heptyn-2-one] as the compound, how does the pIC50 (Human Synovial PLA2; [5]) read?
Answer: 5.05

Question: With `CC(C)(C)c1ccc(OCCCC#CC(=O)C(F)(F)F)cc1` [Example 4, 7-[4-(1,1-Dimethylethyl)phenoxy]-1,1,1-trifluoro-3-heptyn-2-one] as the compound, how does the pIC50 (Human Synovial PLA2; [5]) read?
Answer: 6.70

Question: `COc1ccc(OCCCC#CC(=O)C(F)(F)F)cc1` [Example 5, 1,1,1-Trifluoro-7-(4-methoxyphenoxy)-3-heptyn-2-one] was tested. Which inhibition at 10 µM (Human Synovial PLA2; human synovial fluid) did it give?
Answer: 38.7%

Question: For `O=C(C#CCCCN1c2cccc3cccc(c23)S1(=O)=O)C(F)(F)F` [Example 6, 1,1,1-Trifluoro-7-(2H-naphth[1,8-cd]isothiazol-2-yl)-3-heptyn-2-one S,S-dioxide], which inhibition at 10 µM (Human Synovial PLA2; human synovial fluid) is on record?
Answer: 84.8%

Question: For `O=C(C#CCCCOc1ccc(Cl)cc1)C(F)(F)CCc1ccccc1` [Example 7, 9-(4-Chlorophenoxy)-3,3-difluoro-1-phenyl-5-nonyn-4-one], which inhibition at 10 µM [3] is on record?
Answer: 72%

Question: What about the inhibition at 10 µM [4] of the same compound?
Answer: 40%

Question: What about the pIC50 (Human Synovial PLA2; [5]) of the same compound?
Answer: 6.05

Question: `O=C(C#CCCCOc1cccc(C(F)(F)F)c1)C(F)(F)F` [Example 8, 1,1,1-Trifluoro-7-[3-(trifluoromethyl)phenoxy]-3-heptyn-2-one] was tested. Which inhibition at 10 µM (Human Synovial PLA2; human synovial fluid) did it give?
Answer: 90.5%

Question: How did the inhibition at 10 µM (Human Synovial PLA2; human synovial fluid) turn out when `CC(C)(C#CC(=O)C(F)(F)F)CCOc1ccc(Cl)cc1` [Example 9, 7-(4-Chlorophenoxy)-5,5-dimethyl-1,1,1-trifluoro-3-heptyne-2-one] was run?
Answer: 19.8%

Question: With `O=C(C#CCCCCOc1ccc(Cl)cc1)C(F)(F)F` [Example 10, 8-(4-Chlorophenoxy)-1,1,1-trifluoro-3-octyn-2-one] as the compound, how does the inhibition at 10 µM (Human Synovial PLA2; human synovial fluid) read?
Answer: 94.2%

Question: `O=C(C#CCCCOc1ccc(Cl)c2ccccc12)C(F)(F)F` [Example 11, 7-[(4-Chloro-1-naphthalenyl)oxy]-1,1,1-trifluoro-3-heptyn-2-one] was tested. Which inhibition at 10 µM (Human Platelet PLA2; human platelet) did it give?
Answer: 26.5%

Question: What about the inhibition at 10 µM (Human Synovial PLA2; human synovial fluid) of the same compound?
Answer: 94.6%

Question: `CC(C)(C#CC(=O)C(F)(F)F)Oc1ccc(OC(F)(F)F)cc1` [Example 12, 1,1,1-Trifluoro-5-methyl-5-[4-(trifluoromethoxy)phenoxy]-3-hexyn-2-one] was tested. Which inhibition at 10 µM (Human Synovial PLA2; human synovial fluid) did it give?
Answer: 58.8%

Question: `CC(C)Cc1ccc(C(C)C(=O)O)cc1` (stereo not drawn) [Ibuprofen] was tested. Which ED50 ([2]; standard drugs) did it give?
Answer: 7 mg/kg

Question: Which ED50 [2] does the source give for `COc1ccc2c(c1)c(CC(=O)O)c(C)n2C(=O)c1ccc(Cl)cc1` [Indomethacin] here?
Answer: 0.126 mg/kg

Question: How did the pIC50 (Human Platelet PLA2) turn out when `CC(=CCCC1=CCC(C2=CC(=O)OC2O)OC1O)CCC1=C(C)CCCC1(C)C` (stereo not drawn) [Monoalide, reference compound] was run?
Answer: 4.60

Question: What about the pIC50 (Human Synovial PLA2) of the same compound?
Answer: 6.85

Question: What does the source list for `O=C1CCN(c2ccccc2)N1` [Phenidone]?
Answer: ED50 ([2]; standard drugs): < 30 mg/kg; ED50 [1]: 24 mg/kg
